Values after ≈ are worked out from the molar mass of the structure shown.
How the values were obtained:
Test in all cases: ≥ marks a high value that may be exact or a test limit, other limits are often not marked, values filed in µg/mL are converted to µM
[1] = test system: Bacillus subtilis ATCC 6633
[2] = test system: Escherichia coli K-12
[3] = test system: Micrococcus luteus NCIMB 13267
[4] = test system: Pseudomonas aeruginosa ATCC 27853
[5] = test system: Salmonella typhimurium DA22427
[6] = test system: Salmonella typhimurium DA23899
[7] = test system: Salmonella typhimurium DA6192
[8] = test system: Staphylococcus aureus ATCC 6538
[9] = test system: Candida albicans MDM8
[10] = test system: Escherichia coli SBS 363
[11] = test system: Micrococcus luteus A270
[12] = test system: Candida albicans KCTC 7270
[13] = test system: Escherichia coli CCARM 1229
[14] = test system: Escherichia coli CCARM 1238
[15] = test system: Pseudomonas aeruginosa 4007
[16] = test system: Pseudomonas aeruginosa 4891
[17] = test system: Staphylococcus aureus CCARM 3090
[18] = test system: Staphylococcus aureus CCARM 3518
[19] = test system: Trichosporon beigelii KCTC 7707
[20] = test system: Escherichia coli ATCC 25922
[21] = test system: Staphylococcus aureus LAC
[22] = test system: Bacillus subtilis KCTC 3068
[23] = test system: Enterococcus faecalis ATCC 51575
[24] = test system: Enterococcus faecalis KCCM 29212
[25] = test system: Enterococcus faecium ATCC 51559
[26] = test system: Enterococcus faecium KCCM 12118
[27] = test system: Escherichia coli KCTC 1682
[28] = test system: Pseudomonas aeruginosa KCTC 1637
[29] = test system: Salmonella typhimurium KCTC 1926
[30] = test system: Staphylococcus aureus KCCM 40510
[31] = test system: Staphylococcus aureus KCTC 1621
[32] = test system: Staphylococcus epidermidis KCTC 1917
[33] = test system: Bacillus subtilis CMCC 63501
[34] = test system: Escherichia coli CMCC 44102
[35] = test system: Listeria monocytogenes ATCC 19115
[36] = test system: Pseudomonas aeruginosa CMCC 10104
[37] = test system: Staphylococcus aureus CMCC 26003
[38] = test system: Bacillus subtilis
[39] = test system: Escherichia coli W160-37
[40] = test system: Pseudomonas putida NCIM 2102
[41] = test system: Staphylococcus aureus 8530
[42] = test system: Aspergillus niger
[43] = test system: Penicillium expansum

CC[C@H](C)[C@H](NC(=O)CNC(=O)[C@H](CC(N)=O)NC(=O)[C@H](CCCN=C(N)N)NC(=O)[C@@H](NC(=O)[C@H](CC(N)=O)NC(=O)[C@H](CCCN=C(N)N)NC(=O)CNC(=O)[C@H](CCSC)NC(=O)[C@H](CCCCN)NC(=O)[C@H](CCC(=O)O)NC(=O)[C@@H](NC(=O)[C@H](CCCCN)NC(=O)[C@H](CCCCN)NC(=O)[C@H](Cc1ccccc1)NC(=O)[C@@H](NC(=O)[C@H](CCCCN)NC(=O)[C@H](Cc1c[nH]c2ccccc12)NC(=O)[C@@H](N)CCCCN)C(C)C)[C@@H](C)CC)[C@@H](C)CC)C(=O)N[C@H](C(=O)N[C@@H](CCCCN)C(N)=O)C(C)C [KWKVFKKIEKMGRNIRNGIVK]
MIC [1]: 5 µM (≈ 12.9 µg/mL) | MIC [2]: 6 µM (≈ 15.4 µg/mL) | MIC [3]: 1 µM (≈ 2.57 µg/mL) | MIC [4]: 1.5 µM (≈ 3.86 µg/mL) | MIC [5]: 12 µM (≈ 30.9 µg/mL) | MIC [6]: 25 µM (≈ 64.3 µg/mL) | MIC [7]: 12 µM (≈ 30.9 µg/mL) | MIC [8]: > 100 µM

CC[C@H](C)[C@H](NC(=O)[C@H](CC(C)C)NC(=O)[C@H](CCCCN)NC(=O)[C@H](CCCN=C(N)N)NC(=O)[C@H](Cc1ccccc1)NC(=O)[C@H](CC(C)C)NC(=O)[C@H](CO)NC(=O)[C@H](CC(C)C)NC(=O)[C@H](CC(C)C)NC(=O)[C@@H](N)CO)C(N)=O [SLLSLFRKLI]
MIC [9]: 1.56 µM (≈ 1.85 µg/mL) | MIC [10]: 3.12 µM (≈ 3.71 µg/mL) | MIC [11]: 1.56 µM (≈ 1.85 µg/mL)

CC[C@H](C)[C@H](NC(=O)[C@H](C)NC(=O)[C@H](CCC(=O)O)NC(=O)[C@H](Cc1cnc[nH]1)NC(=O)[C@@H](NC(=O)[C@H](CCCCN)NC(=O)[C@H](CCC(N)=O)NC(=O)[C@H](Cc1ccccc1)NC(=O)[C@@H](NC(=O)[C@H](CCCCN)NC(=O)[C@H](CCCCN)NC(=O)[C@H](CC(C)C)NC(=O)[C@H](C)NC(=O)[C@H](CC(N)=O)NC(=O)[C@H](CC(C)C)NC(=O)CN)C(C)C)[C@@H](C)CC)C(=O)N[C@@H](CCCCN)C(=O)N[C@@H](CC(C)C)C(=O)N[C@H](C(=O)N[C@@H](CC(N)=O)C(=O)N[C@@H](CC(N)=O)C(=O)N[C@@H](Cc1cnc[nH]1)C(=O)N[C@H](C(=O)N[C@@H](CCC(N)=O)C(N)=O)C(C)C)[C@@H](C)CC [GLNALKKVFQKIHEAIKLINNHVQ]
MIC [12]: ≥ 32 µM | MIC [13]: 2 µM (≈ 5.51 µg/mL) | MIC [14]: 2 µM (≈ 5.51 µg/mL) | MIC [15]: 2 µM (≈ 5.51 µg/mL) | MIC [16]: 4 µM (≈ 11 µg/mL) | MIC [17]: 4 µM (≈ 11 µg/mL) | MIC [18]: 4 µM (≈ 11 µg/mL) | MIC [19]: ≥ 32 µM

NC(N)=NCCC[C@H](NC(=O)[C@H](CCCN=C(N)N)NC(=O)[C@H](CCCN=C(N)N)NC(=O)[C@H](CCCN=C(N)N)NC(=O)[C@H](Cc1ccccc1)NC(=O)[C@H](Cc1ccccc1)NC(=O)[C@H](Cc1ccccc1)NC(=O)[C@@H](N)Cc1ccccc1)C(=O)O [FFFFRRRR]
MIC [20]: > 104 µM | MIC [21]: ≥ 104 µM

CC[C@H](C)[C@H](NC(=O)[C@H](CC(C)C)NC(=O)[C@H](CC(C)C)NC(=O)[C@@H](N)CC(C)C)C(=O)N[C@H](C(=O)N[C@@H](CC(C)C)C(=O)N[C@@H](CCCN=C(N)N)C(=O)N[C@@H](CCCCN)C(=O)N[C@@H](CCCCN)C(N)=O)C(C)C [LLLIVLRKK]
MIC [22]: 1.83 µM (≈ 2 µg/mL) | MIC [23]: 3.65 µM (≈ 4 µg/mL) | MIC [24]: 1.83 µM (≈ 2 µg/mL) | MIC [25]: 0.913 µM (≈ 0.999 µg/mL) | MIC [26]: 1.83 µM (≈ 2 µg/mL) | MIC [27]: 3.65 µM (≈ 4 µg/mL) | MIC [28]: 7.3 µM (≈ 7.99 µg/mL) | MIC [29]: 3.65 µM (≈ 4 µg/mL) | MIC [30]: 3.65 µM (≈ 4 µg/mL) | MIC [31]: 3.65 µM (≈ 4 µg/mL) | MIC [32]: 3.65 µM (≈ 4 µg/mL)

CC[C@H](C)[C@H](NC(=O)[C@H](CCCN=C(N)N)NC(=O)[C@H](CCCN=C(N)N)NC(=O)[C@H](Cc1c[nH]c2ccccc12)NC(=O)[C@@H](N)Cc1ccccc1)C(=O)N[C@@H](CCCN=C(N)N)C(=O)N[C@H](C(=O)N[C@H](C(=O)N1CCC[C@H]1C(=O)N[C@H](C(=O)N[C@H](C(=O)N[C@@H](CC(N)=O)C(=O)N1CCC[C@H]1C(=O)N[C@@H](Cc1c[nH]c2ccccc12)C(=O)N[C@@H](Cc1ccccc1)C(=O)N[C@@H](CC(C)C)C(=O)N[C@@H](CCC(N)=O)C(=O)N[C@@H](CCC(N)=O)C(=O)N[C@H](C(N)=O)[C@@H](C)O)C(C)C)C(C)C)[C@@H](C)O)C(C)C [FWRRIRVTPVVNPWFLQQT]
MIC [33]: 26.2 µM (≈ 64 µg/mL) | MIC [34]: ≥ 105 µM | MIC [35]: 13.1 µM (≈ 32 µg/mL) | MIC [36]: ≥ 105 µM | MIC [37]: 13.1 µM (≈ 32 µg/mL)

CC[C@H](C)[C@H](NC(=O)[C@H](CC(C)C)NC(=O)[C@H](C)NC(=O)[C@@H]1CCCN1C(=O)[C@H](CC(C)C)NC(=O)CN)C(=O)N[C@@H](CO)C(=O)N[C@@H](Cc1c[nH]c2ccccc12)C(=O)N[C@H](C(=O)N[C@@H](CCCCN)C(=O)N[C@@H](CCCN=C(N)N)C(=O)N[C@@H](CCCCN)C(=O)N[C@@H](CCCN=C(N)N)C(=O)N[C@@H](CCC(N)=O)C(=O)N[C@@H](CCC(N)=O)C(=O)NCC(N)=O)[C@@H](C)CC [GLPALISWIKRKRQQG]
MIC [38]: 10.5 µM (≈ 19.4 µg/mL) | MIC [39]: 21.4 µM (≈ 39.7 µg/mL) | MIC [40]: ≥ 108 µM | MIC [41]: 16 µM (≈ 29.6 µg/mL)

CC(C)C[C@H](NC(=O)[C@H](Cc1ccccc1)NC(=O)[C@H](CCCN=C(N)N)NC(=O)[C@@H]1CCCN1C(=O)[C@H](C)NC(=O)[C@H](Cc1c[nH]c2ccccc12)NC(=O)[C@H](Cc1c[nH]c2ccccc12)NC(=O)[C@H](C)NC(=O)[C@H](CCCN=C(N)N)NC(=O)[C@H](Cc1ccccc1)NC(=O)[C@H](Cc1ccccc1)NC(=O)[C@H](CCCCN)NC(=O)[C@@H](N)CCCCN)C(=O)N[C@@H](CCCCN)C(N)=O [KKFFRAWWAPRFLK]
MIC [42]: 26.6 µM (≈ 50 µg/mL) | MIC [43]: 13.3 µM (≈ 25 µg/mL)

Source: DBAASP
